Test [1] concerns KB. Description: Cytotoxicity against human KB cells. It counts as functional, cell-based.
The nature of test [2]: Inhibition of tubulin microtubule disassembly.

Active and inactive are the calls of the source. The calls are words filed in the database; no cut-off is given here.

For orientation: IC50 means the point on the concentration scale where inhibition reaches its midpoint. A higher IC50 goes with weaker potency. `CC(C)CC[C@H](C[C@]12C[C@H](CCC(C)C)C(C)(C)[C@](CCC(C)C)(C(=O)C(C(=O)c3ccc(O)c(O)c3)=C1O)C2=O)C(C)C` [OCTAHYDROXANTHOCHYMOL] showed an IC50 in test [1] of 20 µM. Moreover, the outcome in test [2] was inactive.

`CC(=O)O[C@H]1C(=O)[C@@]2(C)[C@H]([C@H](OC(=O)c3ccccc3)[C@]3(O)C[C@H](OC(=O)[C@H](O)[C@@H](NC(=O)c4ccccc4)c4ccccc4)C(C)=C1C3(C)C)[C@]1(OC(C)=O)CO[C@@H]1C[C@@H]2O` [PACLITAXEL] showed an IC50 in test [2] of 0.5 µM.

(Values after ChEMBL document CHEMBL1155563, “Structure-activity relationship of polyisoprenyl benzophenones from Garcinia pyrifera on the tubulin/microtubule system” (J Nat Prod, 2000).)
